These results are taken from PubChem BioAssay AID449750 (Broad Institute, 2010).

Activity calls are given as the source filed them. No rule for the calls is given here.

The assay is described as follows: non-covalent RecA intein splicing inhibitors, dose response, biochemical, cell-free, fluorescence, secondary screen (AID 449750).
In general, AC50 refers to the concentration at which the activity in the assay is half-maximal. `N#Cc1ccc(-n2c(-c3ccccc3)nnc2-c2ccccc2)cc1C#N`: the AC50 is > 38 µM (inactive).

With `O=C1CS/C(=C\[N+](=O)[O-])N1c1ccc(OC(F)(F)F)cc1`, the AC50 is > 38 µM (inactive). Under `COc1ccc(/C=C(/C#N)C(=O)Nc2ccc(O)cc2)cc1C(=O)O` stands > 38 µM (inactive); under `Cc1ccc(-n2nc(C)c3c2OC(N)=C(C#N)C3c2ccco2)cc1` (stereo unspecified), 12.9 µM. `Cc1ccc2c(c1)c1c3n2CCN(C(=O)CCl)C3CCC1` (stereo unspecified): the AC50 is 3.29 µM.

As for `CCOC(=O)C(Nc1ccc2ccccc2c1)C(=O)OCC`, the concentration at half-maximal activity (AC50) is 38.5 µM. Take `CC(C)Oc1cccc(C(=O)C2CCCN(C(=O)c3csnn3)C2)c1` (stereo unspecified): the AC50 was > 38 µM (inactive).

Consider `Cc1ccccc1-c1nc(CN(C)C(C)c2ccon2)c(C)o1` (stereo unspecified), for which the AC50 was > 38 µM (inactive). Under `CCc1ccc(N2C(=O)C(Cl)=C(N3CCOCC3)C2=O)cc1` stands > 38 µM (inactive); under `O=C(NC1C(=O)NNC1c1ccccc1)c1ccccc1` (stereo unspecified), > 38 µM (inactive). Under `Cc1ccc(-n2nc(C)c3c2OC(N)=C(C#N)C3c2ccc(C)o2)cc1` (stereo unspecified) stands 8.87 µM; under `Cc1c(C#N)c(NC(=O)CCl)n(Cc2cccs2)c1C`, 8.86 µM; under `CCOC(=O)C1CCC2(CC1)C(C#N)=C(N)Oc1n[nH]c(C)c12` (stereo unspecified), > 38 µM (inactive). Under `O=c1cc(-c2cccc3ccccc23)[nH][nH]1` stands 12.1 µM; under `CCC1=Nc2cc(C(=O)NCCN3CCCC3)ccc2Sc2ccccc21`, > 38 µM (inactive); under `COc1ccc(N2C(=O)C(Cl)=C(N3CCOCC3)C2=O)cc1`, > 38 µM (inactive). As for `Cc1cc(F)ccc1S(=O)(=O)N(C(=O)c1ccncc1)c1ccc(OC(=O)c2ccncc2)cc1`, the AC50 is > 38 µM (inactive).

Take `Cn1nc([N+](=O)[O-])nc1Sc1nnc(-c2ccccc2)o1`: the AC50 is > 38 µM (inactive).

Turning to `Cc1ccc(C2C(C#N)=C(N)Oc3n[nH]c(-c4cccs4)c32)cc1` (stereo unspecified), the AC50 is 15.3 µM. Take `Cc1c(OCC(=O)Nc2cccnc2)ccc2c3c(c(=O)oc12)CCC3`: the AC50 was > 38 µM (inactive). With `O=C1/C(=C/c2cccc([N+](=O)[O-])c2)CCc2ccccc21`, the AC50 was 11.2 µM.

In the case of `CCC(C)[C@@H](NC(=O)OC(C)(C)C)c1nnc(S(=O)(=O)Cc2cccc(C)c2)o1` (stereo partly specified), the AC50 is > 38 µM (inactive). Under `N#C/C(=C\c1ccc(O)c([N+](=O)[O-])c1)c1nc2ccccc2s1` stands 33.8 µM; under `COc1ccccc1-c1cc(C(F)(F)F)nc(S(=O)(=O)CCCC(=O)NCc2ccc(F)cc2)n1`, 6.03 µM; under `CC1=NN(c2cccc(Cl)c2)C(=O)C12CC(C)=C(C)CS2` (stereo unspecified), 21.7 µM. As for `CCc1[nH]nc2c1C(c1cccc(OC(=O)N3CCOCC3)c1)C(C#N)=C(N)O2` (stereo unspecified), the figure is > 38 µM (inactive). Regarding `O=C(c1ccco1)N1CCN(c2nc(C3CC3)nc3sc4c(c23)CCCC4)CC1`, the AC50 is 12.7 µM. As for `Cc1nc2ccccc2c2c1C(=O)N(c1cccc(C(=O)O)c1)C2=O`, the figure is > 38 µM (inactive). Under `c1coc(-c2nnc(-c3ccco3)nn2)c1` stands 12.8 µM; under `CC(C)[C@H](NC(=O)OC(C)(C)C)c1nnc(S(=O)(=O)Cc2c(F)cccc2Cl)o1`, > 38 µM (inactive); under `Cc1ccc(N(NC(=O)C(O)(c2ccccc2)c2ccccc2)C(=O)CCl)cc1`, 1.57 µM. With `CCN(CC)C(=O)c1ccc2c(c1)C1C(Cl)C(Sc3ccccc3[N+](=O)[O-])CC1C(C(=O)O)N2` (stereo unspecified), the AC50 was 12.5 µM. As for `CCCc1[nH]nc2c1C(c1ccc(OC(=O)N3CCOCC3)cc1)C(C#N)=C(N)O2` (stereo unspecified), the figure is > 38 µM (inactive); as for `O=C1C(Cc2ccccc2)Nc2ncnc(N3CCc4ccccc4C3)c2N1Cc1ccc(Cl)cc1` (stereo unspecified), > 38 µM (inactive); as for `CC(C)c1ccc(/C=N/NC(=O)c2nnn(-c3nonc3N)c2CSC2=NCCS2)cc1`, 27.6 µM. Under `CC(=O)Nc1ccc(NC(=O)c2nc(S(=O)(=O)Cc3cccc(C)c3)ncc2Cl)cc1` stands > 38 µM (inactive).

Take `O=C(NNC(=O)c1ccc2ccccc2c1O)c1ccccc1Cl`: the AC50 is > 38 µM (inactive). As for `Cc1[nH][nH]c(=O)c1C(c1ccc(Br)cc1)c1c(C)[nH][nH]c1=O`, the figure is 11.1 µM; as for `CC1=C(C)/C(=N\OS(=O)(=O)c2ccccc2)C=CC1=O`, > 38 µM (inactive); as for `CC(=O)N(C1=C(N2CCOCC2)C(=O)c2ccccc2C1=O)c1ccc(C(=O)O)cc1`, 9.14 µM. Under `CC1=NN(c2ccccc2)C(=O)/C1=C\c1cn(CCC#N)nc1-c1ccc(Cl)cc1` stands > 38 µM (inactive); under `COc1ccc(NC(=O)/C(Cl)=C(/Cl)S(=O)(=O)Cc2ccc(C)cc2)cn1`, 35.2 µM; under `Cc1ccc(NC2=C/C(=N\S(=O)(=O)c3cccs3)c3ccccc3C2=O)c(C)c1`, 0.304 µM. Under `COC(=O)CCS(=O)(=O)c1nc(-c2ccccc2)cc(C(F)(F)F)n1` stands > 38 µM (inactive). Consider `CCOC(=O)C1=C(c2ccccc2)NC(N)=NC1c1ccc(OCc2ccc(C(=O)OC)cc2)cc1` (stereo unspecified), for which the AC50 was 9.55 µM. As for `COC(=O)Cc1[nH]nc2c1C(c1ccc(O)c(OC)c1)C(C#N)=C(N)O2` (stereo unspecified), the figure is 28.4 µM. Regarding `Cc1cc(-c2[nH]nc3c2C(c2cccc(O)c2)C(C#N)=C(N)O3)c(C)s1` (stereo unspecified), the AC50 was 28.8 µM. As for `Cc1[nH]nc2c1C1(CCN(C(=O)c3ccccc3)CC1)C(C#N)=C(N)O2`, the figure is > 38 µM (inactive); as for `CCCCCCCCCCCCCCCC[N+](C)(C)CC`, 10.9 µM; as for `O=[N+]([O-])c1ccc(Sc2cccc[n+]2[O-])c2nonc12`, 9.27 µM.

On to `CC(C)(C)c1[nH]nc2c1C(Cc1ccccc1)C(C#N)=C(N)O2` (stereo unspecified), for which the AC50 is > 38 µM (inactive). Under `O=C1c2cc(F)ccc2-n2c1nc1ccccc1c2=O` stands > 38 µM (inactive); under `CC1=NN(c2ccc(S(=O)(=O)O)cc2C)C(=O)C1`, 6.31 µM; under `O=C(NC(=C(Cl)Cl)S(=O)(=O)c1ccc(Cl)cc1)c1ccccc1`, 4.78 µM. Under `Cc1[nH]n(-c2ccccc2)c(=O)c1/C=N\NC(=O)C1COc2ccccc2O1` (stereo unspecified) stands 8.94 µM; under `O=C(NC1(O)C(=O)c2ccccc2C1=O)c1ccccc1`, 9.46 µM; under `O=C(CCNc1cccc(F)c1)c1cccc([N+](=O)[O-])c1`, > 38 µM (inactive).

For `COc1ccc(C(C(=O)NC2CCCCC2)N(C(=O)CCl)c2cccc(Cl)c2)cc1` (stereo unspecified), the concentration at half-maximal activity (AC50) was 0.577 µM. Under `Cc1ccc(SCc2[nH]nc3c2C2(CCSCC2)C(C#N)=C(N)O3)cc1` stands 30.4 µM; under `Cc1ccc(N2C(=O)C(Cl)=C(N3CCOCC3)C2=O)cc1Cl`, > 38 µM (inactive); under `CCc1nnc(NS(=O)(=O)c2ccc(NC(=S)NC(=O)/C=C/c3ccc(C(C)C)cc3)cc2)s1`, 5.98 µM. Regarding `CCc1nnc(NC(=O)c2nc(S(=O)(=O)Cc3ccc(C)cc3)ncc2Cl)s1`, the AC50 was > 38 µM (inactive). As for `Cc1cccc(NC(=S)N/N=C2/CCCCc3ccccc32)c1`, the figure is > 38 µM (inactive); as for `CC(=O)N(Cc1ccc(F)cc1)C1=C(NCCc2ccccc2)C(=O)c2ccccc2C1=O`, 7.58 µM; as for `Cc1nn(-c2cccc(Cl)c2)c2c1C(c1cccnc1)C(C#N)=C(N)O2` (stereo unspecified), 34.6 µM. On to `COc1ccc(-c2cc(=O)[nH][nH]2)cc1`, for which the AC50 was 8.39 µM. With `ClCc1nnc(-c2cc3c(s2)CCCC3)o1`, the AC50 is > 38 µM (inactive).

In the case of `O=C(CCCN1C(=O)/C(=C/c2ccccc2)SC1=S)Nc1ccc(C(=O)O)c(O)c1`, the AC50 is 33.8 µM. As to `COC(=O)c1ccc(NC(=O)c2nc(S(=O)(=O)Cc3cccc(C)c3)ncc2Cl)cc1`, the AC50 was 17.1 µM. As for `O=C(CCl)N(Cc1cc(=O)[nH]c2ccccc12)c1ccccc1`, the figure is 8.46 µM; as for `O=[N+]([O-])c1ccc(Oc2cccc(Br)c2)c2ccncc12`, 13.1 µM. Regarding `CC(=O)c1cccc2c(O)c(C3=Nc4ccccc4C3=O)[nH]c12`, the AC50 is 34.6 µM. As for `Cc1ccc(NC2=C(N3CCOCC3)C(=O)c3ccccc3C2=O)cc1`, the figure is 11.3 µM. Under `O=C(CCl)N(Cc1cccc([N+](=O)[O-])c1)c1cccc(Cl)c1` stands 2.77 µM. Turning to `Cc1ccc(C2C(C#N)=C(N)Oc3nc(-c4ccccc4)[nH]c32)o1` (stereo unspecified), the AC50 was > 38 µM (inactive). Under `COc1cc(C2CC(c3cccs3)=NN2C(=O)CCl)ccc1OC(F)F` (stereo unspecified) stands > 38 µM (inactive); under `CC1=NN(c2nc(-c3ccccc3)cs2)C(=O)C1`, 18.8 µM. Take `Cc1cc(C)c(C(CC(=O)c2cccs2)C(C#N)C#N)c(C)c1` (stereo unspecified): the AC50 was 38.8 µM. As for `COc1cc(/C=N/NC(=O)CC2(C)OCCCO2)ccc1OCc1ccccc1`, the figure is > 38 µM (inactive). As for `CN(Cc1ccc(Cl)cc1)C(=O)CCl`, the figure is 10.2 µM; as for `Cc1cc(C(=O)CCl)c(C)n1CCc1ccc(Cl)cc1`, 4.99 µM. As for `COc1ccc(-n2c3nc4ccccc4nc3c3c(=N)oc(C)nc32)cc1`, the figure is > 12 µM (inactive); as for `O=c1[nH]c(O)c(N=Nc2cc([N+](=O)[O-])ccc2O)c(=O)[nH]1`, 2.29 µM. As for `O=C(CCl)N1CCN2C(=O)c3ccccc3C12c1ccc(Cl)cc1` (stereo unspecified), the AC50 is 7.81 µM.

`Cc1noc(C)c1COC(=O)Cc1ccc(Br)cc1`: the AC50 was > 38 µM (inactive). With `O=C(CN(c1cccc(Br)c1)S(=O)(=O)c1ccccc1)N/N=C/c1cc([N+](=O)[O-])ccc1O`, the AC50 was > 38 µM (inactive). Under `COc1ccc(NC(=O)/C(Cl)=C(/Cl)S(=O)Cc2ccccc2)cn1` (stereo unspecified) stands > 38 µM (inactive); under `CSc1nc(=S)n(-c2ccc([N+](=O)[O-])cc2)c(C)c1C(C)=O`, > 38 µM (inactive). As for `O=C(Cc1ccccc1)c1c[nH]c(C(=O)C(Cl)(Cl)Cl)c1`, the figure is 38.1 µM; as for `CCOc1cc(/C=C2/C(=O)N(c3ccccc3)N=C2C)ccc1OC(=O)c1ccco1`, 3.17 µM.

Consider `CCC(=O)N/N=C(\C)CC(=O)Nc1cccc([N+](=O)[O-])c1`, for which the AC50 was > 38 µM (inactive).
